Results reported in patent US8580769B2, “Treatment of obesity, metabolic syndrome, and diabetes with protein kinase C inhibitors” (The United States of America as represented by the …, priority 2011, dated 2013).

Columns and labels:
[1] = tested on: human hepatocytes; assay: mRNA expression of lipogenic, inflammatory and glucogenic markers in human hepatocytes (RT-PCR); assay type: cell-based; conditions: for expression of G6 Pase / expression of PEPCK: hepatocytes of non-diabetic and T2DM humans, inhibitor alone or with insulin; for expression of ACC / expression of FAS / expression of IL-1β / expression of SREBP-1c / expression of TNF-α: hepatocytes of non-diabetic and/or T2DM humans
Protocol: After thawing, the hepatocytes were distributed (approximately 10^6 cells per 100 mm plate) and incubated approximately 16 hours overnight in Dulbecco's minimal essential medium containing 5% fetal calf serum, 100 units/ml sodium-penicillin, 100 μg/ml streptomycin-sulfate, 1 μM insulin and 2 μM dexamethasone. After washing, cells were incubated first for 2 hours in William's E medium (Sigma-Aldrich, St. Louis, Mo., catalog no. W1878) containing GLUTAMAX™ (Gibco/Invitrogen, Carlsbad, Calif.), 100 units/ml sodium-penicillin, 100 μg/ml streptomycin-sulfate, 10 μM insulin, 100 nM dexamethasone, and then for 2 hours in William's E medium containing 100 units/ml sodium penicillin, 100 μg/ml streptomycin-sulfate, 100 nM dexamethasone, 0.25 mg/ml transferrin, 0.25 μg/ml sodium selenite and 10 μM insulin. Cells were then washed and incubated for 3 hours in the same medium, but lacking insulin. Where indicated, an aPKC inhibitor was then added and incubation was continued for 30 min, after which, cells were treated either for 15 min with or without 100 nM insulin for acute signaling studies, […] After incubation, cells were sonicated in homogenizing buffer.
(§1) mRNA Measurements: As previously described (Sajan et al., J. Lipid Res. 50:1133-1145, 2009; Sajan et al., Diabetologia 52:1197-1207, 2009; Farese et al., J. Clin. Invest. 117:2289-2301, 2007), tissues were added to TRIZOL® reagent (Invitrogen) and RNA was extracted and purified with the RNEASY® Mini-Kit (Qiagen; Valencia, Calif.) and RNAase-free DNAase set (Qiagen) as per kit instructions, quantified by measuring A260/A280, further checked for purity by electrophoresis on 1.2% agarose gels, and mRNA quantified by quantitative real-time reverse transcriptase-polymerase chain reaction (RT-PCR). Reverse transcription was accomplished with TAQMAN® reverse transcription reagent from Applied Biosystems (Foster City, Calif., USA). mRNAs were measured with a SYBR® Green kit (Applied Biosystems) using the nucleotide primers shown in Table 1.

[2] = tested on: liver of Het-MλKO mice; assay: hepatic mRNA and nuclear NFκB levels in Het-MλKO mice; assay type: in vivo, mouse; conditions: for hepatic ACC mRNA / hepatic FAS mRNA: 7-day treatment s.c. (ATM 60 mg/kg; ICAPP 0.4 mg/kg); for hepatic G6 Pase expression / hepatic PEPCK expression / hepatic SREBP-1c mRNA: s.c. once daily (ATM 60 mg/kg; ICAPP 0.4 mg/kg; ICAP 0.5 mg/kg)
Text: In Vivo Mouse Studies: Male wild type (WT) and heterozygous muscle-specific PKC-λ knockout (Het-MλKO) mice were generated as described (Farese et al., J. Clin. Invest. 117:2289-2301, 2007) and used at 6-12 months of age, when the O/MS/T2DM phenotype in MλKO mice is well-developed. Mice were housed in a temperature-controlled environment with alternating 12-hour light and dark cycles, and fed ad libitum with standard chow (Harlan Teklad 20/18 with 5% fat, (10% of calories from fat)). All experimental procedures in mice were approved by the Institutional Animal Care and Use Committees of the Roskamp Institute and the University of South Florida College of Medicine, and the James A. Haley Veterans Administration Medical Center Research and Development Committee, Tampa, Fla.
(ICAPP; prepared by Southern Research, Birmingham, Ala.) at 0.4 mg/kg body weight. On the morning of the eighth day of inhibitor treatment, mice were injected intraperitoneally (IP) with 0.9% saline or saline containing 1 U insulin/kg body weight 15 minutes before sacrifice, an optimal time for studies of insulin stimulation of aPKC and Akt in liver, muscle and adipose tissues (Standaert et al., J. Biol. Chem. 279:24929-24934, 2004; Sajan et al., J. Lipid Res. 50:1133-1145, 2009; Sajan et al., Diabetologia 52:1197-1207, 2009; Farese et al., J. Clin. Invest. 117:2289-2301, 2007). After killing, blood, liver, quadriceps muscle and abdominal adipose tissues were rapidly removed and homogenized in buffer with a POLYTRON® homogenizer.
as §1
Nuclear Preparations: As previously described (Sajan et al., J. Lipid Res. 50:1133-1145, 2009; Sajan et al., Diabetologia 52:1197-1207, 2009; Farese et al., J. Clin. Invest. 117:2289-2301, 2007), liver nuclei were prepared with NE-PER® Nuclear and Cytoplasmic Extraction Reagents (Pierce Biotechnology/Thermo Scientific, Waltham, Mass.; Cat. No. 78833) Levels of the active p65/RelA subunit of NFκB were measured in these nuclear preparations.

[3] = Het-MλKO mice, ATM 60 mg/kg/day s.c., 7 days
[4] = non-diabetic human hepatocytes, 6 hours, 100 nM insulin, 100 nM ICAP
[5] = liver of ICAP-treated Mλ-Het KO mice, relative to wild type = 1

NC(=O)c1ncn([C@@H]2C[C@H](COP(=O)(O)O)[C@@H](O)[C@H]2O)c1N [ICAPP, 1H-imidazole-4-carboxamide, 5-amino-1-[2,3-dihydroxy-4-[(phosphonooxy)methyl]cyclopentyl]-[1R-(1α,2β,3β,4α)]]
expression of G6 Pase [1]: insulin-like, or enhanced insulin, effects
expression of PEPCK [1]: insulin-like, or enhanced insulin, effects
expression of ACC [1]: diminished
expression of FAS [1]: diminished
expression of IL-1β [1]: diminished
expression of SREBP-1c [1]: diminished
expression of TNF-α [1]: diminished
hepatic ACC mRNA ([2]; Het-MλKO mice): diminished to wild type levels
hepatic FAS mRNA ([2]; Het-MλKO mice): diminished to wild type levels
hepatic G6 Pase expression ([2]; Het-MλKO mice): trended downward to or toward control levels
hepatic PEPCK expression ([2]; Het-MλKO mice): trended downward to or toward control levels
hepatic SREBP-1c mRNA ([2]; Het-MλKO mice): diminished to wild type levels

O=C([O-])CC([S][Au])C(=O)[O-] (stereo not drawn) [ATM, aurothiomalate, reference compound]
expression of G6 Pase [1]: insulin-like, or enhanced insulin, effects
expression of PEPCK [1]: insulin-like, or enhanced insulin, effects
expression of ACC [1]: diminished
expression of FAS [1]: diminished
expression of IL-1β [1]: diminished
expression of SREBP-1c [1]: diminished
expression of TNF-α [1]: diminished
hepatic ACC mRNA ([2]; Het-MλKO mice): decreased, virtually to normal
hepatic FAS mRNA ([2]; Het-MλKO mice): decreased, virtually to normal
hepatic active nuclear NFκB/p65/RelA levels [2, 3]: decreased, virtually to normal
hepatic expression of IL-1β [2, 3]: normalized
hepatic expression of TNF-α [2, 3]: normalized
hepatic G6 Pase expression ([2]; Het-MλKO mice): diminished
hepatic PEPCK expression ([2]; Het-MλKO mice): diminished
hepatic SREBP-1c mRNA ([2]; Het-MλKO mice): decreased, virtually to normal

NC(=O)c1ncn([C@@H]2C[C@H](CO)[C@@H](O)[C@H]2O)c1N [ICAP, 1H-imidazole-4-carboxamide 5-amino-1-[2,3-dihydroxy-4-[hydroxymethyl]cyclopentyl]-[1R-(1α,2β,3β,4α)]]
effects on insulin-provoked aPKC activity and mRNA levels in hepatocytes of diabetic humans ([1]; hepatocytes of diabetic humans): Comparable results
insulin-provoked increase in ACC mRNA [1, 4]: inhibited
insulin-provoked increase in FAS mRNA [1, 4]: inhibited
insulin-provoked increase in IL-1β mRNA [1, 4]: inhibited
insulin-provoked increase in SREBP-1c mRNA [1, 4]: inhibited
insulin-provoked increase in TNF-α mRNA [1, 4]: inhibited
hepatic G6 Pase expression ([2]; Het-MλKO mice): decreased
hepatic PEPCK expression ([2]; Het-MλKO mice): decreased
hepatic SREBP-1c mRNA ([2]; Het-MλKO mice): decreased
relative mRNA level, G6Pase [2, 5]: 1.42
relative mRNA level, PEPCK [2, 5]: 0.52
relative mRNA level, SREBP-1c [2, 5]: 1.14
